# Measured values as given in doi:10.1101/2023.11.24.568596v1 (biorxiv, 2023).
# Tests used:
# Conditions in all cases: binder
# [1] = molecular target: T1, MST2 (Homo sapiens, UniProt Q13188)
# T1 sequence (Q13188 1-491): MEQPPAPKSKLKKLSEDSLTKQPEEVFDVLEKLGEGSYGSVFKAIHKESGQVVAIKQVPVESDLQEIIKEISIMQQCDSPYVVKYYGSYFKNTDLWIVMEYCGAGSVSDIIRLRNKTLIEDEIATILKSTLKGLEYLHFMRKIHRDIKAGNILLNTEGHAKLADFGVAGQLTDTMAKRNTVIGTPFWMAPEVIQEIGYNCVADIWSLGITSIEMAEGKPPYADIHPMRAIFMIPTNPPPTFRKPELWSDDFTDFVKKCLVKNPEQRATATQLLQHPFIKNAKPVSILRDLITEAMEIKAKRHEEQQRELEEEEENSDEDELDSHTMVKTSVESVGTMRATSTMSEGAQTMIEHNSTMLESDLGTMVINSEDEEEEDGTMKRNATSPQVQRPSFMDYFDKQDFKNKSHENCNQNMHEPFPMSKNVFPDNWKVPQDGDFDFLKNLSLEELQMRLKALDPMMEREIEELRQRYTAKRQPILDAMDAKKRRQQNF
# [2] = molecular target: MST3 (Homo sapiens, UniProt Q9Y6E0)
# MST3, sequence (Q9Y6E0 whole entry): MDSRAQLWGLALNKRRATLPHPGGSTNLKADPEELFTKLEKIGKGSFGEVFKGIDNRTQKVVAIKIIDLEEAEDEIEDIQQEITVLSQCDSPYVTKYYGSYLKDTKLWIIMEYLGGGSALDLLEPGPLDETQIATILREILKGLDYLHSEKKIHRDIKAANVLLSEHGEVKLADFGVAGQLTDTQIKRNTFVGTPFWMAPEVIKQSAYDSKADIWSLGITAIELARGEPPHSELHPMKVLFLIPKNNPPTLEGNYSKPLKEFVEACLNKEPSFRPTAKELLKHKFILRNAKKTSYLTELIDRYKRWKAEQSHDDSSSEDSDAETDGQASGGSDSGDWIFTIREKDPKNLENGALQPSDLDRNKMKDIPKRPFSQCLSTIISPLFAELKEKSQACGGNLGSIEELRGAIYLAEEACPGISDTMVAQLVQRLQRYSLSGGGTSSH
# [3] = molecular target: PAK1 (Homo sapiens, UniProt Q13153)
# PAK1, sequence (Q13153 whole entry): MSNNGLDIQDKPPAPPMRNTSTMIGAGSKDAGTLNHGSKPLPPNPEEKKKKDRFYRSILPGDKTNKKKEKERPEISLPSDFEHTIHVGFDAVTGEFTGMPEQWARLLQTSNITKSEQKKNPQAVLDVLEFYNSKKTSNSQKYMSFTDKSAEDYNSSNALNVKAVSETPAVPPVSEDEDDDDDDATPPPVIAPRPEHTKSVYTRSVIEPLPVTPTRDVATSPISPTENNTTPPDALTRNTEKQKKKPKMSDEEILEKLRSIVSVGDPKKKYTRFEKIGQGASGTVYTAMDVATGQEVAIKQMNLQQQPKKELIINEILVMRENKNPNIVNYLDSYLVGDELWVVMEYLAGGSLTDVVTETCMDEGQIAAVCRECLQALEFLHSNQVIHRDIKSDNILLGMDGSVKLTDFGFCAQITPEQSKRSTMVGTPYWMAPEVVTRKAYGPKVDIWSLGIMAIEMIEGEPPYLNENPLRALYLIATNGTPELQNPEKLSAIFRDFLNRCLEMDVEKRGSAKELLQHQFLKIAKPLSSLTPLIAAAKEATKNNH
# [4] = molecular target: T2, MST1 (Homo sapiens, UniProt Q13043)
# T2 sequence (Q13043 1-487): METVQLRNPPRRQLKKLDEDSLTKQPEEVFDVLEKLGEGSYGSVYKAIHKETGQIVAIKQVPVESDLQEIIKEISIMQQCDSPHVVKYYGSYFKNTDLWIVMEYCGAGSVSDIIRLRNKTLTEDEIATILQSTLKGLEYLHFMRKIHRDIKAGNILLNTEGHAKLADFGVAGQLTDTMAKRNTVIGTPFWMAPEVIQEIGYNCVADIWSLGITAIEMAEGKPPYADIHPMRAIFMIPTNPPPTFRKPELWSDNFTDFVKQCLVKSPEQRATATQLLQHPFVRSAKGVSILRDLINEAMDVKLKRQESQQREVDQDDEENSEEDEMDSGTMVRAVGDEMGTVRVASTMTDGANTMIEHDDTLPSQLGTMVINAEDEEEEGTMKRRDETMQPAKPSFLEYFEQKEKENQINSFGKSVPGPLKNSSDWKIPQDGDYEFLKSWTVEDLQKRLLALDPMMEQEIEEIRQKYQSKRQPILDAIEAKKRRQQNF
# [5] = molecular target: MST4 (Homo sapiens, UniProt Q9P289)
# MST4, sequence (Q9P289 whole entry): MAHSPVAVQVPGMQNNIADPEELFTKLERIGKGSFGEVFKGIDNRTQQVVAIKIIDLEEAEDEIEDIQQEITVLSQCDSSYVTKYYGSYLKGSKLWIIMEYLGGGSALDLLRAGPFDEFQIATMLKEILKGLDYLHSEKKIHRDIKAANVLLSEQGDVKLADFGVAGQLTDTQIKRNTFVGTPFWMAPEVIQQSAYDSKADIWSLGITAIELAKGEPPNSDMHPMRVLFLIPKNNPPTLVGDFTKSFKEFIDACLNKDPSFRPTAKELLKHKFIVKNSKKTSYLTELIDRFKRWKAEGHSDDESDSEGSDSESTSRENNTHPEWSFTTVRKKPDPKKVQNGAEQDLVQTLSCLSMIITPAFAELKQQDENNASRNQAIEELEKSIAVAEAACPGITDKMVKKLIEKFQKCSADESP
SMILES,dTm MST2 [1],dTm MST3 [2],dTm PAK1 [3],dTm MST1 [4],dTm MST4 [5]
"CNc1ncc2cc(-c3ccc(-c4cccc(C)n4)cc3Cl)c(O)nc2n1 [compound 9, 6-(2-Chloro-4-(6-methylpyridin-2-yl)phenyl)-2-(methylamino)pyrido[2,3-d]pyrimidin-7-ol]",0.3 °C,0.6 °C,,,
"CNc1ncc2cc(-c3ccc(-c4cccc(C)n4)cc3Cl)c(=O)n(C)c2n1 [compound 10, 6-(2-Chloro-4-(6-methylpyridin-2-yl)phenyl)-8-methyl-2-(methylamino)pyrido[2,3-d]pyrimidin-7(8H)-one]",1.3 °C,3.7 °C,3.2 °C,1.6 °C,1.6 °C
"CNc1ncc2cc(-c3ccc(-c4cccc(C)n4)cc3Cl)c(=O)n(CCO)c2n1 [compound 14, 6-(2-Chloro-4-(6-methylpyridin-2-yl)phenyl)-8-(2-hydroxyethyl)-2-(methylamino)-pyrido[2,3-d]pyrimidin-7(8H)-one]",9.0 °C,7.8 °C,5.0 °C,4.0 °C,5.8 °C
"CNc1ncc2cc(-c3ccc(-c4cccc(C)n4)cc3Cl)c(=O)n(CCCO)c2n1 [compound 15, 6-(2-Chloro-4-(6-methylpyridin-2-yl)phenyl)-8-(3-hydroxypropyl)-2-(methylamino)-pyrido[2,3-d]pyrimidin-7(8H)-one]",6.3 °C,6.2 °C,4.5 °C,3.4 °C,5.0 °C
"CNc1ncc2cc(-c3ccc(-c4cccc(C)n4)cc3Cl)c(=O)n(CCCCCO)c2n1 [compound 17, 6-(2-Chloro-4-(6-methylpyridin-2-yl)phenyl)-8-(5-hydroxypentyl)-2-(methylamino)-pyrido[2,3-d]pyrimidin-7(8H)-one]",6.1 °C,6.6 °C,6.0 °C,2.4 °C,5.5 °C
"CNc1ncc2cc(-c3ccc(-c4cccc(C)n4)cc3Cl)c(=O)n(CCN)c2n1 [compound 18, 8-(2-Aminoethyl)-6-(2-chloro-4-(6-methylpyridin-2-yl)phenyl)-2-(methylamino)pyrido[2,3-d]pyrimidin-7(8H)-one]",1.6 °C,5.5 °C,1.3 °C,1.6 °C,3.3 °C
"CNc1ncc2cc(-c3ccc(-c4cccc(C)n4)cc3Cl)c(=O)n(CCCN)c2n1 [compound 19, 8-(3-Aminopropyl)-6-(2-chloro-4-(6-methylpyridin-2-yl)phenyl)-2-(methylamino)-pyrido[2,3-d]pyrimidin-7(8H)-one]",4.4 °C,7.9 °C,4.0 °C,2.8 °C,7.2 °C

# Next, values leading:
dTm MST2 [1],dTm MST3 [2],dTm PAK1 [3],dTm MST1 [4],dTm MST4 [5],SMILES
5.0 °C,6.7 °C,4.1 °C,3.9 °C,4.4 °C,"CNc1ncc2cc(-c3ccc(-c4cccc(C)n4)cc3Cl)c(=O)n(CCOC)c2n1 [compound 11, 6-(2-Chloro-4-(6-methylpyridin-2-yl)phenyl)-8-(2-methoxyethyl)-2-(methylamino)-pyrido[2,3-d]pyrimidin-7(8H)-one]"
6.2 °C,5.1 °C,5.1 °C,3.6 °C,4.1 °C,"CNc1ncc2cc(-c3ccc(-c4cccc(C)n4)cc3Cl)c(=O)n(CCCOC)c2n1 [compound 12, 6-(2-Chloro-4-(6-methylpyridin-2-yl)phenyl)-8-(3-methoxypropyl)-2-(methylamino)-pyrido[2,3-d]pyrimidin-7(8H)-one]"
8.6 °C,6.2 °C,4.8 °C,3.3 °C,3.6 °C,"CNc1ncc2cc(-c3ccc(-c4cccc(C)n4)cc3Cl)c(=O)n(CCCCOC)c2n1 [compound 13, 6-(2-Chloro-4-(6-methylpyridin-2-yl)phenyl)-8-(4-methoxybutyl)-2-(methylamino)-pyrido[2,3-d]pyrimidin-7(8H)-one]"
7.1 °C,5.7 °C,5.0 °C,3.8 °C,5.0 °C,"CNc1ncc2cc(-c3ccc(-c4cccc(C)n4)cc3Cl)c(=O)n(CCCCO)c2n1 [compound 16, 6-(2-Chloro-4-(6-methylpyridin-2-yl)phenyl)-8-(4-hydroxybutyl)-2-(methylamino)-pyrido[2,3-d]pyrimidin-7(8H)-one]"
10.7 °C,9.2 °C,6.3 °C,5.2 °C,7.1 °C,"CNc1ncc2cc(-c3ccc(-c4cccc(C)n4)cc3Cl)c(=O)n(CCCCCN)c2n1 [compound 21, 8-(5-Aminopentyl)-6-(2-chloro-4-(6-methylpyridin-2-yl)phenyl)-2-(methylamino)-pyrido[2,3-d]pyrimidin-7(8H)-one]"
